Key:
[1] = Neurotoxicity was determined in cultured mouse cortical neurons; type: toxicity
Glutamate receptor 2 [2] = biological target: Glutamate receptor 2 (Homo sapiens, UniProt P42262); assay: biochemical
[3] = biological target: Glutamate receptor ionotropic, kainate 1 (Homo sapiens, UniProt P39086); assay: Binding affinity of compound was determined towards cloned Ionotropic glutamate receptor ionotropic kainate 1 (GluR5) expressed in Sf 9 insect cells
[4] = biological target: T1, Glutamate receptor ionotropic, kainate 3 (Rattus norvegicus, UniProt P42264); assay: Binding affinity of compound was determined against KA receptor, using radioligand [3H]- KA
Glutamate receptor 4 [5] = biological target: Glutamate receptor 4 (Homo sapiens, UniProt P48058); assay: Binding affinity of compound was determined towards cloned Ionotropic glutamate receptor AMPA 4 (GluR4) expressed in Sf 9 insect cells
Rattus norvegicus = species on record: Rattus norvegicus; assay: Effective concentration of compound was determined for electrophysiological properties on iGluRs using rat cortical slice model in Xenopus laevis oocytes
[6] = biological target: Glutamate receptor ionotropic, kainate 2 (Homo sapiens, UniProt Q13002); assay: Binding affinity of compound was determined towards cloned Ionotropic glutamate receptor ionotropic kainate 6 (GluR6) expressed in Sf 9 insect cells
Glutamate receptor 3 [7] = biological target: Glutamate receptor 3 (Homo sapiens, UniProt P42263); assay: Binding affinity of compound was determined towards cloned Ionotropic glutamate receptor AMPA 3 (GluR3) expressed in Sf 9 insect cells
Sequence of Glutamate receptor 3 (Homo sapiens, UniProt P42263) (P42263 whole entry): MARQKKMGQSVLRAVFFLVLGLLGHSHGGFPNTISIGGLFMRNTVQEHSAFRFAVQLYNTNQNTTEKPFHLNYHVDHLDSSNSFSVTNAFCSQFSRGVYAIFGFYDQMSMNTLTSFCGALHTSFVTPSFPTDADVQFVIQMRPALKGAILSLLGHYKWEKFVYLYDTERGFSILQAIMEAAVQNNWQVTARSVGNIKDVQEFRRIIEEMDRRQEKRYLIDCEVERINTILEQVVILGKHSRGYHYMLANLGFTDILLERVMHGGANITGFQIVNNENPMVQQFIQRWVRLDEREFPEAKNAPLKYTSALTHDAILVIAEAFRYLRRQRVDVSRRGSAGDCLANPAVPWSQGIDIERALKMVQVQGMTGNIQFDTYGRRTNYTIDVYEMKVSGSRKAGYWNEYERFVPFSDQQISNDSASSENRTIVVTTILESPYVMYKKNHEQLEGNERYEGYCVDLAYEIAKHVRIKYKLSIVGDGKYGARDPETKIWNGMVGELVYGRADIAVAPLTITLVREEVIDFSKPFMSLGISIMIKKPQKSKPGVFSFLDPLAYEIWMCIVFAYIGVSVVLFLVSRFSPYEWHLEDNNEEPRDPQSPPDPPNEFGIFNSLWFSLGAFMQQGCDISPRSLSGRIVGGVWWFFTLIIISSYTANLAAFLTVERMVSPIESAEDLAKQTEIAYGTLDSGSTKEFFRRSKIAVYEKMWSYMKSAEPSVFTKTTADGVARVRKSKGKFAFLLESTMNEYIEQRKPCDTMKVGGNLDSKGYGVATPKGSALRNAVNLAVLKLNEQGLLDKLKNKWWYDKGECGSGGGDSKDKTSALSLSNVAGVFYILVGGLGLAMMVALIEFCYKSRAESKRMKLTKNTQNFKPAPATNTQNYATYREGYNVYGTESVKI

[8] = biological target: Glutamate receptor ionotropic, NMDA 2C (Rattus norvegicus, UniProt Q00961); assay: Binding affinity of compound was determined against N-methyl-D-aspartate glutamate receptor, using radioligand [3H]- CGP-39653
Sequence of Glutamate receptor ionotropic, NMDA 2C (Q00961 whole entry): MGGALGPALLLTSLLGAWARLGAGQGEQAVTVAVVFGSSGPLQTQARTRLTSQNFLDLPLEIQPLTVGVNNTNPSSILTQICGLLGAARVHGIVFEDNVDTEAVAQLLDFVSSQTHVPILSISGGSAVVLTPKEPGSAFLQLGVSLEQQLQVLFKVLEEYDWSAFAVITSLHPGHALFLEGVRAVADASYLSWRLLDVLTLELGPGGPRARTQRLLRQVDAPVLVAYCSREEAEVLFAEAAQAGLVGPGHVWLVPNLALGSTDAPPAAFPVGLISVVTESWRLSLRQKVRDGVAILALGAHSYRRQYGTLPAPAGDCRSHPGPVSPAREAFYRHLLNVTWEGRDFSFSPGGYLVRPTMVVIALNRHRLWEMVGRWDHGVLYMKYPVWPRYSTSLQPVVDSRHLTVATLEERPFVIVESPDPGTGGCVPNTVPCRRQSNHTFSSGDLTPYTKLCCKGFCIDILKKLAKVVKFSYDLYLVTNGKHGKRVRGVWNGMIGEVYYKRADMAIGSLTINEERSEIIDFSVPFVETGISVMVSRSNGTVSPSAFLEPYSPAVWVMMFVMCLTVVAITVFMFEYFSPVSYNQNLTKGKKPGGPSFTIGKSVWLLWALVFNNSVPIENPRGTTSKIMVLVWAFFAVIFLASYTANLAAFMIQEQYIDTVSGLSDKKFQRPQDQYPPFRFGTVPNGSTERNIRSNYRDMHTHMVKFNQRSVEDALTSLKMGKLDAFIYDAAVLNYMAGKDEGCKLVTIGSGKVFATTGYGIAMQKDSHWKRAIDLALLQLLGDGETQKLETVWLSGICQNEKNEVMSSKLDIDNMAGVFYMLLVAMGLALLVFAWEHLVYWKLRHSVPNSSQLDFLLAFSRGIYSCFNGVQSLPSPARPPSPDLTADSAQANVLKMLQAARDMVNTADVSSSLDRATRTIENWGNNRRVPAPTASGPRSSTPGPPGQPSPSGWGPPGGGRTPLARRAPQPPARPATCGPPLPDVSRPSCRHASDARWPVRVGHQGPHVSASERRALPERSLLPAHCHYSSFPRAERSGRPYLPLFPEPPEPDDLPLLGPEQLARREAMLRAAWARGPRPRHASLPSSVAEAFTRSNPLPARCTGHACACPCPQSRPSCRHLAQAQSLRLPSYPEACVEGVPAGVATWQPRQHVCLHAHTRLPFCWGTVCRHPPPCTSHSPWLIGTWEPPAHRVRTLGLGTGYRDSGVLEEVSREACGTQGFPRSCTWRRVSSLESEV

Glutamate receptor 1 [9] = biological target: Glutamate receptor 1 (Homo sapiens, UniProt P42261); assay: Binding affinity of compound was determined towards cloned Ionotropic glutamate receptor AMPA 1 (GluR1) expressed in Sf 9 insect cells
Glutamate receptor 2 [10] = biological target: Glutamate receptor 2 (Rattus norvegicus, UniProt P19491); assay: Effective concentration of compound was determined for electrophysiological properties on Ionotropic glutamate receptor AMPA 2 (GluR2) using […] Xenopus laevis oocytes; type: functional, cell-based, Oocyte
[11] = biological target: T2, Metabotropic glutamate receptor 1 (Homo sapiens, UniProt Q13255); assay: Antagonist activity of compound at Metabotropic glutamate receptor 1 alpha was determined; type: functional
T2 sequence (Q13255 whole entry): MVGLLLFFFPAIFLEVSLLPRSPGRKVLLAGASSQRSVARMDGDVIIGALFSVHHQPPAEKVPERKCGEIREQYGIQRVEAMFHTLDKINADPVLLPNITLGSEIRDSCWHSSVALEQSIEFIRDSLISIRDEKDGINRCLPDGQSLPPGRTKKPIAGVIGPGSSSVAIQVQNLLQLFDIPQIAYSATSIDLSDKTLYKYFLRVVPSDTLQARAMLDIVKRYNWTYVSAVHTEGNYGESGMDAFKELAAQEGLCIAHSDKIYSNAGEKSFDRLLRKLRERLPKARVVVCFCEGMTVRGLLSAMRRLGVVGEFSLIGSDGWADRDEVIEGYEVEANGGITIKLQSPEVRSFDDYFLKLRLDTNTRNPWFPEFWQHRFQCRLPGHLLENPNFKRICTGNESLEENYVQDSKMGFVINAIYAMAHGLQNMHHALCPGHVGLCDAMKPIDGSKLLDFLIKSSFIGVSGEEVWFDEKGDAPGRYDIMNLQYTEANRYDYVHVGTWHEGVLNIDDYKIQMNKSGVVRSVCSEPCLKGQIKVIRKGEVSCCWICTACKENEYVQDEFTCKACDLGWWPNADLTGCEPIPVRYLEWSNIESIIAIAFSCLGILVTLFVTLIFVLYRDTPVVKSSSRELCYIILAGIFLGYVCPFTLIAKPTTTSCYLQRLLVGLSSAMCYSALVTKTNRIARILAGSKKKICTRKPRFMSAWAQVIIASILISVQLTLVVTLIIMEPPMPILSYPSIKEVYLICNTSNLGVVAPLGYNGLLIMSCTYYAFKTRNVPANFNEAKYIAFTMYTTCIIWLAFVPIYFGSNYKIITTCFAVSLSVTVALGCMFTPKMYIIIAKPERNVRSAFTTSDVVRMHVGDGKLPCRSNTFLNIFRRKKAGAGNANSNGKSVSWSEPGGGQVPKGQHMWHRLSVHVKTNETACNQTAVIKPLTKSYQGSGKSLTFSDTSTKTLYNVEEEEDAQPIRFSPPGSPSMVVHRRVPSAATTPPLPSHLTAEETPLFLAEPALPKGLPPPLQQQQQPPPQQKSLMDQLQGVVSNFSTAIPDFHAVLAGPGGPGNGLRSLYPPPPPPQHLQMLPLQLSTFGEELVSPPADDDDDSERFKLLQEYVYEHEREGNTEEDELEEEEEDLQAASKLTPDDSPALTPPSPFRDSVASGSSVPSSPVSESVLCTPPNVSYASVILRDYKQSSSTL

Glutamate receptor 4 [12] = biological target: Glutamate receptor 4 (Rattus norvegicus, UniProt P19493); assay: Effective concentration of compound was determined for electrophysiological properties on Ionotropic glutamate receptor AMPA 4 (GluR4) using […] Xenopus laevis oocytes; type: functional, cell-based, Oocyte
Glutamate receptor 3 [13] = biological target: Glutamate receptor 3 (Rattus norvegicus, UniProt P19492); assay: Effective concentration of compound was determined for electrophysiological properties on Ionotropic glutamate receptor AMPA 3 (GluR3) using […] Xenopus laevis oocytes; type: functional, cell-based, Oocyte
Glutamate receptor 1 [14] = biological target: Glutamate receptor 1 (Rattus norvegicus, UniProt P19490); assay: Binding affinity of compound was determined against Ionotropic glutamate receptor AMPA receptor, using radioligand [3H]- AMPA
[15] = biological target: T2, Metabotropic glutamate receptor 1; assay: Antagonist activity of compound at Metabotropic glutamate receptor 1 was determined; type: functional
[16] = biological target: T1, Glutamate receptor ionotropic, kainate 3; assay: Binding affinity of compound was determined against Ionotropic glutamate receptor ionotropic kainate, using radioligand [3H]- KA
Glutamate receptor 1 [17] = biological target: Glutamate receptor 1 (Mus musculus, UniProt P23818); assay: Effective concentration of compound was determined for electrophysiological properties on […] glutamate receptor 1 using […] Xenopus laevis oocytes; type: functional, cell-based, Oocyte

Sequence of Glutamate receptor ionotropic, kainate 1 (P39086 whole entry): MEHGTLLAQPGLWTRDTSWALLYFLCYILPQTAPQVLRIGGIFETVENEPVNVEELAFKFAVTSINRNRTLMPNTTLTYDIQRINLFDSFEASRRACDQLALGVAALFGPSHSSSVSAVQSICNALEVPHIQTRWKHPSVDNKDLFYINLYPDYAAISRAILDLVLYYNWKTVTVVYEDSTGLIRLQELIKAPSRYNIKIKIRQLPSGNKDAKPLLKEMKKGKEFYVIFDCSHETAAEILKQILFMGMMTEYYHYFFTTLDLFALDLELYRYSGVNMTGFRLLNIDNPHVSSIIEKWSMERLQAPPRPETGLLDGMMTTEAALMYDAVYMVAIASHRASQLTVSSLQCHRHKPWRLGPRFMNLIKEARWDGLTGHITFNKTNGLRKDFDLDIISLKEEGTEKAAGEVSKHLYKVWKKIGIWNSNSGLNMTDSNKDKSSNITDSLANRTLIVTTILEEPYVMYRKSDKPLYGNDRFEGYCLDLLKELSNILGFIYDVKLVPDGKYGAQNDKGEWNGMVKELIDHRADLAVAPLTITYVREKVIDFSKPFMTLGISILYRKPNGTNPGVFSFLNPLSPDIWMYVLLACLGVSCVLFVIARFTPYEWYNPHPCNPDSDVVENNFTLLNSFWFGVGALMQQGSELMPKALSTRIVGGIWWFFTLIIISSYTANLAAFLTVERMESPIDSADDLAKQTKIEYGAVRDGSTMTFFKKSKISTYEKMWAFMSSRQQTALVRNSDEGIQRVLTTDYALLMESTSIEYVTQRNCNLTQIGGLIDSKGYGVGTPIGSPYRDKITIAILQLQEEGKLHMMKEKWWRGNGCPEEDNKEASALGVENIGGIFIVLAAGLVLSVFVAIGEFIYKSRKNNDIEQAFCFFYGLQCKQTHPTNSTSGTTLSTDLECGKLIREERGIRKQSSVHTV
Sequence of Glutamate receptor 2 (Homo sapiens, UniProt P42262) (P42262 whole entry): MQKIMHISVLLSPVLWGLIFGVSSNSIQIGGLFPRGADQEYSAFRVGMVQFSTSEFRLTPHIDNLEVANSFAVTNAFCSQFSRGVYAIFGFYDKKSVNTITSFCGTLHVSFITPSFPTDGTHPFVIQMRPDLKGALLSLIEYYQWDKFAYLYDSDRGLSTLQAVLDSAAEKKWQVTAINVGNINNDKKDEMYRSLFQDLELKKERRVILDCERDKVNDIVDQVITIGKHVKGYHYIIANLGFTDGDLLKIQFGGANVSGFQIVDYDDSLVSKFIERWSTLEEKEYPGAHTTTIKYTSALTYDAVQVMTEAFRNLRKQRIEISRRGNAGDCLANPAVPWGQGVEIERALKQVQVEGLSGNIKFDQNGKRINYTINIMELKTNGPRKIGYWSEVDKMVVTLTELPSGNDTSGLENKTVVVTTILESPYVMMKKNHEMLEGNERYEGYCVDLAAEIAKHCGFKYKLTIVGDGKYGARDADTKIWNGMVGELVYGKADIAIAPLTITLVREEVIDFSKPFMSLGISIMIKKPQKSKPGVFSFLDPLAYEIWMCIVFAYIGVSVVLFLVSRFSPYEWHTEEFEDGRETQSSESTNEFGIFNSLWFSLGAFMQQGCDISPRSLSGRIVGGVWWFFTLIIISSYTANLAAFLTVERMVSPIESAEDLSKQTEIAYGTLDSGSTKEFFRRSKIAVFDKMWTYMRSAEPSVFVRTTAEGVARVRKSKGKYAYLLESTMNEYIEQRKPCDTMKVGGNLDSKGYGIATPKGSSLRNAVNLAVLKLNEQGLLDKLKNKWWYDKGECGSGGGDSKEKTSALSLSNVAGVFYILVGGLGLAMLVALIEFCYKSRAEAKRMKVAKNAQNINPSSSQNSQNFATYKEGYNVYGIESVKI

Structure (SMILES) | EC50 [1] [µM] | Ki (Glutamate receptor 2 [2]) [µM] | Ki [3] [µM] | IC50 [4] [µM] | Ki (Glutamate receptor 4 [5]) [µM] | EC50 (Rattus norvegicus) [µM] | Ki [6] [µM] | Ki (Glutamate receptor 3 [7]) [µM] | Ki [8] [µM] | Ki (Glutamate receptor 1 [9]) [µM] | EC50 (Glutamate receptor 2 [10]) [µM] | Ki [11] [µM] | EC50 (Glutamate receptor 4 [12]) [µM] | EC50 (Glutamate receptor 3 [13]) [µM] | IC50 (Glutamate receptor 1 [14]) [µM] | Ki [15] [µM] | IC50 [16] [µM] | EC50 (Glutamate receptor 1 [17]) [µM]
NC(Cc1onc(O)c1Cl)C(=O)O (configuration not stated) | 27 | 0.37 | 6.8 | > 100 | 11.9 | 39 | > 100 | 27.5 | 18 | 0.13 | 1.7 | 860 | 1300 | 2700 | 0.22 | – | – | –
NC(Cc1onc(O)c1Br)C(=O)O (configuration not stated) | 16 | 0.25 | 4.8 | – | 11.7 | – | > 100 | 12 | 34 | 0.17 | – | – | – | – | – | 329 | > 100 | 14
Cc1onc(O)c1CC(N)C(=O)O [(R,S)-AMPA] | 13 | – | – | – | – | – | – | – | – | – | – | – | – | – | – | – | – | –
